Assay results from ChEMBL document CHEMBL5537164, “Discovery of Potent, Orally Bioavailable, Tricyclic NLRP3 Inhibitors” (J Med Chem, 2024).
≈ marks a conversion by molar mass, not a printed value.

What was measured:
[1] = Volume of distribution at steady state in C57BL/6 mouse at 3 mg/kg, po or 1 mg/kg, iv measured after 24 hrs by LC-MS/MS analysis; type: ADME, organism-based; conditions: in vivo
[2] = Volume of distribution at steady state in Sprague-Dawley rat at 10 mg/kg, po or 1 mg/kg, iv measured after 24 hrs by LC-MS/MS analysis; type: ADME, organism-based; conditions: in vivo
[3] = Half-life in Sprague-Dawley rat at 10 mg/kg, po or 1 mg/kg, iv measured after 24 hrs by LC-MS/MS analysis; type: ADME, organism-based; conditions: in vivo
[4] = Dose normalized AUC in Sprague-Dawley rat at 10 mg/kg, po measured after 24 hrs by LC-MS/MS analysis; type: ADME, organism-based; conditions: in vivo
[5] = Volume of distribution at steady state in Beagle dog at 1 mg/kg, po or 0.1 mg/kg, iv measured after 24 hrs by LC-MS/MS analysis; type: ADME, organism-based, Canis lupus familiaris; conditions: in vivo
[6] = Half-life in Beagle dog at 1 mg/kg, po or 0.1 mg/kg, iv measured after 24 hrs by LC-MS/MS analysis; type: ADME, organism-based, Canis lupus familiaris; conditions: in vivo
[7] = Dose normalized AUC in Beagle dog at 1 mg/kg, po measured after 24 hrs by LC-MS/MS analysis; type: ADME, organism-based, Canis lupus familiaris; conditions: in vivo
[8] = Oral bioavailability in Beagle dog at 1 mg/kg measured after 24 hrs by LC-MS/MS analysis; type: ADME, organism-based, Canis lupus familiaris; conditions: in vivo
[9] = Lipophilicity, logD of compound at pH 7.4; type: physicochemical; conditions: buffer
[10] = Metabolic stability in human liver microsomes assessed as intrinsic clearance; type: ADME, Microsome; conditions: read-out: CLH
[11] = Metabolic stability in mouse liver microsomes assessed as intrinsic clearance; type: ADME, Microsome; conditions: read-out: CLH
[12] = Clearance in C57BL/6 mouse at 1 mg/kg, iv measured after 24 hrs by LC-MS/MS analysis; type: ADME, organism-based; conditions: in vivo
[13] = Oral bioavailability in C57BL/6 mouse measured after 24 hrs by LC-MS/MS analysis; type: ADME, organism-based; conditions: in vivo
[14] = AUC (0 to infinity) in C57BL/6 mouse at 3 mg/kg, po measured after 24 hrs by LC-MS/MS analysis; type: ADME, organism-based; conditions: in vivo
[15] = biological target: Nuclear factor NF-kappa-B complex (Homo sapiens, UniProt P19838+Q00653+Q04206); test: Inhibition of NF-kappaB in PMA-differentiated human THP-1 cells assessed as reduction in TNF-alpha release preincubated with compound for 1 hrs followed by Pam3CSK4 stimulation and measured after 3 hrs by HTRF assay; type: cell-based
[16] = biological target: Voltage-gated inwardly rectifying potassium channel KCNH2 (Homo sapiens, UniProt Q12809); test: Displacement of [3H]-dofetilide from human ERG; type: toxicity
[17] = In vivo inhibition of NLRP3 in LPS/ATP-induced C57BL/6 mouse model of acute peritonitis assessed as reduction in IL-1beta level at 30 mg/kg, po preadministered with compound for 1 hrs followed by LPS stimulation for 2 hrs and measured 15 mins after ATP addition by ELISA relative to control; type: functional; conditions: time 3.25 hrs
[18] = In vivo inhibition of NLRP3 in LPS/ATP-induced C57BL/6 mouse model of acute peritonitis assessed as reduction in IL-1beta level at 10 mg/kg, po preadministered with compound for 1 hrs followed by LPS stimulation for 2 hrs and measured 15 mins after ATP addition by ELISA relative to control; type: functional; conditions: time 3.25 hrs
[19] = In vivo inhibition of NLRP3 in LPS/ATP-induced C57BL/6 mouse model of acute peritonitis assessed as reduction in IL-1beta level at 3 mg/kg, po preadministered with compound for 1 hrs followed by LPS stimulation for 2 hrs and measured 15 mins after ATP addition by ELISA relative to control; type: functional; conditions: time 3.25 hrs
[20] = Drug concentration in blood of C57BL/6 mouse model of acute peritonitis at 100 mg/kg, po preadministered with compound for 1 hrs followed by LPS stimulation for 2 hrs and measured 15 mins after ATP addition by HPLC-MS/MS analysis; type: ADME, organism-based; conditions: whole blood, read-out: Ct
[21] = Drug concentration in blood of C57BL/6 mouse model of acute peritonitis at 30 mg/kg, po preadministered with compound for 1 hrs followed by LPS stimulation for 2 hrs and measured 15 mins after ATP addition by HPLC-MS/MS analysis; type: ADME, organism-based; conditions: whole blood, read-out: Ct
[22] = Drug concentration in blood of C57BL/6 mouse model of acute peritonitis at 10 mg/kg, po preadministered with compound for 1 hrs followed by LPS stimulation for 2 hrs and measured 15 mins after ATP addition by HPLC-MS/MS analysis; type: ADME, organism-based; conditions: whole blood, read-out: Ct
[23] = Drug concentration in blood of C57BL/6 mouse model of acute peritonitis at 3 mg/kg, po preadministered with compound for 1 hrs followed by LPS stimulation for 2 hrs and measured 15 mins after ATP addition by HPLC-MS/MS analysis; type: ADME, organism-based; conditions: whole blood, read-out: Ct
[24] = Drug concentration in blood of C57BL/6 mouse model of acute peritonitis at 50 mg/kg, po preadministered with compound for 1 hrs followed by LPS stimulation for 2 hrs and measured 15 mins after ATP addition by HPLC-MS/MS analysis; type: ADME, organism-based; conditions: whole blood, read-out: Ct
[25] = Drug concentration in brain of C57BL/6 mouse model of acute peritonitis at 50 mg/kg, po preadministered with compound for 1 hrs followed by LPS stimulation for 2 hrs and measured 15 mins after ATP addition by HPLC-MS/MS analysis; type: ADME, organism-based; conditions: read-out: Ct
[26] = Thermodynamic solubility of compound at pH 6.8; type: physicochemical; conditions: buffer, read-out: Therm_solubility
Cytochrome P450 2C9 = Cytochrome P450 2C9 (Homo sapiens, UniProt P11712); test: Inhibition of CYP2C9 (unknown origin); type: ADME
[27] = biological target: Synaptic vesicular amine transporter (Homo sapiens, UniProt Q05940); test: Inhibition of VMAT-2 (unknown origin)
[28] = Drug metabolism in rat liver microsomes assessed as N-demethylation of piperidine ring mediated metabolite formation; type: ADME, Microsome
[29] = Drug metabolism in human liver microsomes assessed as N-demethylation of piperidine ring mediated metabolite formation; type: ADME, Microsome
[30] = Drug metabolism in rat liver microsome assessed as thiophene oxidation mediated metabolite formation; type: ADME; conditions: microsomes
[31] = Drug metabolism in dog liver microsome assessed as thiophene oxidation mediated metabolite formation; type: ADME, Canis lupus familiaris; conditions: microsomes
[32] = Drug metabolism in human liver microsome assessed as thiophene oxidation mediated metabolite formation; type: ADME; conditions: microsomes
[33] = Clearance in mouse liver microsomes; type: ADME, Microsome; conditions: read-out: CLH
[34] = Clearance in dog liver microsomes; type: ADME, Canis lupus familiaris, Microsome; conditions: read-out: CLH
[35] = Clearance in human liver microsomes; type: ADME, Microsome; conditions: read-out: CLH
[36] = Protein binding in mouse plasma; type: ADME, cell-free; conditions: read-out: PPB (converted)
[37] = Protein binding in rat plasma; type: ADME, cell-free; conditions: read-out: PPB (converted)
[38] = Protein binding in dog plasma; type: ADME, cell-free, Canis lupus familiaris; conditions: read-out: PPB (converted)
[39] = Protein binding in human plasma; type: ADME, cell-free; conditions: read-out: PPB (converted)
[40] = Clearance in C57BL/6 mouse assessed as hepatic blood flow at 3 mg/kg, po or 1 mg/kg, iv measured after 24 hrs by LC-MS/MS analysis; type: ADME, organism-based, Liver; conditions: in vivo
[41] = Clearance in Sprague-Dawley rat assessed as hepatic blood flow at 10 mg/kg, po or 1 mg/kg, iv measured after 24 hrs by LC-MS/MS analysis; type: ADME, organism-based, Liver; conditions: in vivo
[42] = Clearance in Beagle dog assessed as hepatic blood flow at 1 mg/kg, po or 0.1 mg/kg, iv measured after 24 hrs by LC-MS/MS analysis; type: ADME, organism-based, Canis lupus familiaris, Liver; conditions: in vivo

Sequence of Voltage-gated inwardly rectifying potassium channel KCNH2 (Q12809 whole entry): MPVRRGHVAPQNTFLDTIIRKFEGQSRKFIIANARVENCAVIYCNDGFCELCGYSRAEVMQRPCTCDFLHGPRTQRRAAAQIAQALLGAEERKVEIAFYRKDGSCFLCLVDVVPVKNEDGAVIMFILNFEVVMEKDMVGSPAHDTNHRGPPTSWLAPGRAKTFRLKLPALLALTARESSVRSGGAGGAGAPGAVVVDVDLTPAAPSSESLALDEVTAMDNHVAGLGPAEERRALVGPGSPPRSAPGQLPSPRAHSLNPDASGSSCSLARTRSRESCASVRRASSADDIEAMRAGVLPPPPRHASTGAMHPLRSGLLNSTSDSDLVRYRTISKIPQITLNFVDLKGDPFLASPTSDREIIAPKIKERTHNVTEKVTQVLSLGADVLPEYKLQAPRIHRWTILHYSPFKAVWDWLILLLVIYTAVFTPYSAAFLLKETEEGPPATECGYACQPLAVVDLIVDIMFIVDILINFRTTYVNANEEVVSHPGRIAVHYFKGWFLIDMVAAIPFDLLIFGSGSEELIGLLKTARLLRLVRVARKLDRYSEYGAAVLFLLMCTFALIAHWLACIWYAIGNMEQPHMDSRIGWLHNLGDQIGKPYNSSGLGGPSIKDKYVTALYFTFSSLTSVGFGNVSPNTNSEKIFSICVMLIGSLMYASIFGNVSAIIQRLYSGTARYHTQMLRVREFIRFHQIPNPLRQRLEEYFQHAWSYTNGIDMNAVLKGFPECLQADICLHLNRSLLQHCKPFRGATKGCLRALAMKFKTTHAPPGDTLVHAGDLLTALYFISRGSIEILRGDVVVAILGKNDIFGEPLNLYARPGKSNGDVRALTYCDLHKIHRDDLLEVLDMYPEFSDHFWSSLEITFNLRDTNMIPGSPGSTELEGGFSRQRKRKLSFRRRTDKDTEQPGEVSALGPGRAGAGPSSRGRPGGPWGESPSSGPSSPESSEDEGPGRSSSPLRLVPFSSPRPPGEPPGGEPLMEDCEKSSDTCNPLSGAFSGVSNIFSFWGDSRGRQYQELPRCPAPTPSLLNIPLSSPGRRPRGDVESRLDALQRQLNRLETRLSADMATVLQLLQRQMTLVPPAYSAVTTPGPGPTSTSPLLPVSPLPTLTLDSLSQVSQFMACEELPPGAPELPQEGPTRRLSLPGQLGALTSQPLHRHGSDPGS
Sequence of Synaptic vesicular amine transporter (Q05940 whole entry): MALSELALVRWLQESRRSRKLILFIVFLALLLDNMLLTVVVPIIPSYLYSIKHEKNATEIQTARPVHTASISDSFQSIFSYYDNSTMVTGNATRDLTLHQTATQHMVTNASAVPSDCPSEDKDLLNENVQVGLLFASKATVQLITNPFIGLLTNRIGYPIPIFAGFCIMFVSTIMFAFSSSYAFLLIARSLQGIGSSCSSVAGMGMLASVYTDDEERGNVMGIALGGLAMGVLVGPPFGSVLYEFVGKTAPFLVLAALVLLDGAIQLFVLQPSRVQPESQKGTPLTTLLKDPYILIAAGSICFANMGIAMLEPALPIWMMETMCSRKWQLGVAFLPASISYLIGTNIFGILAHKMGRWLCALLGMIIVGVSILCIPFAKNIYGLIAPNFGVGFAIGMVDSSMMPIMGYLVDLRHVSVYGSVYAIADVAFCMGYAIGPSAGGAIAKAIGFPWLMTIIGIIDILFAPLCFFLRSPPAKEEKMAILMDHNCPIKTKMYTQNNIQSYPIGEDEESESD
Sequence of Cytochrome P450 2C9 (P11712 whole entry): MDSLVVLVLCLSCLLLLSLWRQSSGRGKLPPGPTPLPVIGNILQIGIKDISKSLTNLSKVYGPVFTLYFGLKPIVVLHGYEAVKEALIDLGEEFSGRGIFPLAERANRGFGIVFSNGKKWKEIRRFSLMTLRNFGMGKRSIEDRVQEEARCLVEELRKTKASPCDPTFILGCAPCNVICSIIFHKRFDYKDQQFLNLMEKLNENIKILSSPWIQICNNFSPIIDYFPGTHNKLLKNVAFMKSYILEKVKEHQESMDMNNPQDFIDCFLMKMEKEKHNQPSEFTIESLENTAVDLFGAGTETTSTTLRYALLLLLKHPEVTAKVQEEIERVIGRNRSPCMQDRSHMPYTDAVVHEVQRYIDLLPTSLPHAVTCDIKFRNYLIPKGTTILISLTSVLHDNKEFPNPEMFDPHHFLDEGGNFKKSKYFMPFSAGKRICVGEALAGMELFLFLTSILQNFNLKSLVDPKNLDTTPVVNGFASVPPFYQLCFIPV
Sequence of Nuclear factor NF-kappa-B complex (P19838 1-433 limits assumed): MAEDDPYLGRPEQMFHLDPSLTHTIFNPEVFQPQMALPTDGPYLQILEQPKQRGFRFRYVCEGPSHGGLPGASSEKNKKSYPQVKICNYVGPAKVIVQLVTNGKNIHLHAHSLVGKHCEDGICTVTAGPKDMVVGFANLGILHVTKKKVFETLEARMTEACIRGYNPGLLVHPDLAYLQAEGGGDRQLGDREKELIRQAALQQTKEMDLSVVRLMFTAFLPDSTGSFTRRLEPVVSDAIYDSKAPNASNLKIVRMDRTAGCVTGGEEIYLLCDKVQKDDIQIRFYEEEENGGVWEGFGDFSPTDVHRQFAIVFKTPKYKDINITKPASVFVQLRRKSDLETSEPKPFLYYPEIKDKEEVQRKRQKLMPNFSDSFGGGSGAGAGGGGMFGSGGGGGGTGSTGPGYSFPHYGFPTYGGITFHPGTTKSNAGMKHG
Sequence of Nuclear factor NF-kappa-B complex (Q00653 1-454 limits assumed): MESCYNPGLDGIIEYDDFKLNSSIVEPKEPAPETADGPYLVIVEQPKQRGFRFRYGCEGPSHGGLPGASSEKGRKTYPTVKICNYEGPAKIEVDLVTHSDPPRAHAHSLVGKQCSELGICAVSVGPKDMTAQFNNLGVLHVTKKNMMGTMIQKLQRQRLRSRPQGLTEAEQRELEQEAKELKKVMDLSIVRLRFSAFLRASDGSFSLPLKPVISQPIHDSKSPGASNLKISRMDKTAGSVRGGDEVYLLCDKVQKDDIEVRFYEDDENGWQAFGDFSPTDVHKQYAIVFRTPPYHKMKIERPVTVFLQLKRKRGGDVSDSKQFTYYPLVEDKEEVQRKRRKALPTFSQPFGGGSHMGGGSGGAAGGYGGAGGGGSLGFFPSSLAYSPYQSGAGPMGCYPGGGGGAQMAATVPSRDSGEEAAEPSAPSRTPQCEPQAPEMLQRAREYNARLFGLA
Sequence of Nuclear factor NF-kappa-B complex (Q04206 whole entry): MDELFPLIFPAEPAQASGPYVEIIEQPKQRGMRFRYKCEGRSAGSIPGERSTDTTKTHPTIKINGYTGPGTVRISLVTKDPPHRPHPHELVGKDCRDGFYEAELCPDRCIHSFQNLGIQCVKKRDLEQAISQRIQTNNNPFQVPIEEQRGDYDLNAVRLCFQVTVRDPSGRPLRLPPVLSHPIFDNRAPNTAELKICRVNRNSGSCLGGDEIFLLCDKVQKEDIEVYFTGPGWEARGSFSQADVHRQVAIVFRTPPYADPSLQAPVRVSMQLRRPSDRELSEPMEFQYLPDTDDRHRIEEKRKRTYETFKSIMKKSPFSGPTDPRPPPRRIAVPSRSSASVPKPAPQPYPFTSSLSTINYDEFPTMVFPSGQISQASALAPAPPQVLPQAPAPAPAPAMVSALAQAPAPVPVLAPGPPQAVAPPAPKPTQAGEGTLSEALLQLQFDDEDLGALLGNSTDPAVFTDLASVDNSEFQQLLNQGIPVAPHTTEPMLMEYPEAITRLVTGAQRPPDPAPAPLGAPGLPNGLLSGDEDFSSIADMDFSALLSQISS

CN1CCC[C@@H](NC(=O)Cn2nc(C(C)(C)O)n3c(cc4sc(Cl)cc43)c2=O)C1
Vdss [1]: 3.9 L/kg
Vdss [2]: 5.5 L/kg
half-life [3]: 3.5 h
AUC/dose [4]: 712 nmol·h/L
Vdss [5]: 4.1 L/kg
half-life [6]: 5.7 h
AUC/dose [7]: 2530 nmol·h/L
bioavailability [8]: 89%
logD [9]: 2.3
microsomal CLint [10]: 38 µL/min/mg
microsomal CLint [11]: 103 µL/min/mg
clearance [12]: 3.48 L/h/kg
bioavailability [13]: 36%
AUC(0-inf) [14]: 718 nM·h
IC50 [15]: > 100 µM
IC50 [16]: > 30 µM
inhibition in vivo at 30 mg/kg [17]: 91%
inhibition in vivo at 10 mg/kg [18]: 45%
inhibition in vivo at 3 mg/kg [19]: 34%
concentration at 3.25 h [20]: 3.67 µM
concentration at 3.25 h [21]: 1.06 µM
concentration at 3.25 h [22]: 0.163 µM
concentration at 3.25 h [23]: 0.07 µM
concentration at 3.25 h [24]: 1.68 µM
concentration at 3.25 h [25]: 0.398 µM
solubility thermodynamic [26]: 0.159 mg/mL (≈ 363 µM)
IC50 (Cytochrome P450 2C9): > 25 µM
IC50 [27]: 6.5 µM
Drug metabolism [28]: Metabolite_Detected
Drug metabolism [29]: Metabolite_Detected
Drug metabolism [30]: Metabolite_Notdetected
Drug metabolism [31]: Metabolite_Notdetected
Drug metabolism [32]: Metabolite_Notdetected
microsomal CLint [33]: 103 µL/min/mg
microsomal CLint [34]: 39 µL/min/mg
microsomal CLint [35]: 37 µL/min/mg
fraction unbound [36]: 0.03
fraction unbound [37]: 0.22
fraction unbound [38]: 0.17
fraction unbound [39]: 0.15
LBF [40]: 40%
LBF [41]: 40%
LBF [42]: 40%
